Assay results reported in PubChem BioAssay (NCI).
Values after ≈ are worked out from the molar mass of the structure shown.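 Step 1: Grow cells in 96-well plates. Step 2: Expose to compound for 48 hours at 5 concentrations. Step 3: Interpolate endpoints linearly; if unreached, use highest concentration. The concentration for 50% growth inhibition is given as GI50. TGI denotes the concentration required for complete inhibition of growth.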

Key:
Assay in all cases: NCI anticancer screen, dose series, 48 h
786-0 renal = test system: 786-0 renal
MDA-N = test system: MDA-N
HCT-15 colon = test system: HCT-15 colon
NCI-H226 lung = test system: NCI-H226 lung
HL-60(TB) leukemia = test system: HL-60(TB) leukemia
NCI/ADR-RES ovarian = test system: NCI/ADR-RES ovarian
HOP-62 NSCLC = test system: HOP-62 NSCLC
U251 CNS = test system: U251 CNS
SN12C renal = test system: SN12C renal
NCI-H522 lung = test system: NCI-H522 lung
MDA-MB-231 breast = test system: MDA-MB-231 breast
SW-620 colon = test system: SW-620 colon
SF-268 CNS = test system: SF-268 CNS
OVCAR-8 ovarian = test system: OVCAR-8 ovarian
SR leukemia = test system: SR leukemia
RPMI-8226 leukemia = test system: RPMI-8226 leukemia
UO-31 renal = test system: UO-31 renal
UACC-257 melanoma = test system: UACC-257 melanoma
MOLT-4 leukemia = test system: MOLT-4 leukemia
HCT-116 colon = test system: HCT-116 colon
HCC-2998 colon = test system: HCC-2998 colon
M14 melanoma = test system: M14 melanoma
OVCAR-4 ovarian = test system: OVCAR-4 ovarian
T-47D breast = test system: T-47D breast
SK-OV-3 ovarian = test system: SK-OV-3 ovarian
CAKI-1 renal = test system: CAKI-1 renal
MALME-3M melanoma = test system: MALME-3M melanoma
BT-549 breast = test system: BT-549 breast
CCRF-CEM leukemia = test system: CCRF-CEM leukemia
LOX IMVI melanoma = test system: LOX IMVI melanoma

Cc1cc(C)c(C2CNCc3cc4c(cc32)CNCC4c2c(C)cc(C)cc2C)c(C)c1 (centres undefined)
TGI (786-0 renal): 5.26 µg/mL (≈ 12.4 µM)
GI50 (MDA-N): 2.05 µg/mL (≈ 4.83 µM)
TGI (MDA-N): 4.3 µg/mL (≈ 10.1 µM)
GI50 (HCT-15 colon): 4.13 µg/mL (≈ 9.72 µM)
TGI (HCT-15 colon): 14.2 µg/mL (≈ 33.4 µM)
GI50 (NCI-H226 lung): 13.4 µg/mL (≈ 31.6 µM)
TGI (NCI-H226 lung): 26.5 µg/mL (≈ 62.4 µM)
GI50 (HL-60(TB) leukemia): 1.81 µg/mL (≈ 4.27 µM)
TGI (HL-60(TB) leukemia): 4.3 µg/mL (≈ 10.1 µM)
GI50 (NCI/ADR-RES ovarian): 6.38 µg/mL (≈ 15 µM)
TGI (NCI/ADR-RES ovarian): 19.5 µg/mL (≈ 45.8 µM)
GI50 (HOP-62 NSCLC): 8.62 µg/mL (≈ 20.3 µM)
TGI (HOP-62 NSCLC): 22.3 µg/mL (≈ 52.6 µM)
GI50 (U251 CNS): 2.54 µg/mL (≈ 5.98 µM)
TGI (U251 CNS): 5.59 µg/mL (≈ 13.2 µM)
GI50 (SN12C renal): 2.59 µg/mL (≈ 6.1 µM)
TGI (SN12C renal): 9.63 µg/mL (≈ 22.7 µM)
GI50 (NCI-H522 lung): 3.23 µg/mL (≈ 7.6 µM)
TGI (NCI-H522 lung): 9.18 µg/mL (≈ 21.6 µM)
GI50 (MDA-MB-231 breast): 2.42 µg/mL (≈ 5.69 µM)
TGI (MDA-MB-231 breast): 11.4 µg/mL (≈ 26.8 µM)
GI50 (SW-620 colon): 3.11 µg/mL (≈ 7.31 µM)
TGI (SW-620 colon): 11.5 µg/mL (≈ 27 µM)
GI50 (SF-268 CNS): 3.17 µg/mL (≈ 7.47 µM)
TGI (SF-268 CNS): 9.96 µg/mL (≈ 23.5 µM)
GI50 (OVCAR-8 ovarian): 2 µg/mL (≈ 4.71 µM)
TGI (OVCAR-8 ovarian): 4.18 µg/mL (≈ 9.84 µM)
GI50 (SR leukemia): 0.303 µg/mL (≈ 0.713 µM)
TGI (SR leukemia): 1 µg/mL (≈ 2.36 µM)
GI50 (RPMI-8226 leukemia): 2.25 µg/mL (≈ 5.3 µM)
TGI (RPMI-8226 leukemia): 6.92 µg/mL (≈ 16.3 µM)
GI50 (UO-31 renal): 2.04 µg/mL (≈ 4.8 µM)
TGI (UO-31 renal): 5.56 µg/mL (≈ 13.1 µM)
GI50 (UACC-257 melanoma): 1.83 µg/mL (≈ 4.3 µM)
TGI (UACC-257 melanoma): 4.27 µg/mL (≈ 10.1 µM)
GI50 (MOLT-4 leukemia): 2.95 µg/mL (≈ 6.95 µM)
TGI (MOLT-4 leukemia): 8.55 µg/mL (≈ 20.1 µM)
GI50 (HCT-116 colon): 2.38 µg/mL (≈ 5.59 µM)
TGI (HCT-116 colon): 6.14 µg/mL (≈ 14.5 µM)
GI50 (HCC-2998 colon): 1.82 µg/mL (≈ 4.3 µM)
TGI (HCC-2998 colon): 3.85 µg/mL (≈ 9.07 µM)
GI50 (M14 melanoma): 1.83 µg/mL (≈ 4.32 µM)
TGI (M14 melanoma): 3.28 µg/mL (≈ 7.73 µM)
GI50 (OVCAR-4 ovarian): 2.48 µg/mL (≈ 5.83 µM)
TGI (OVCAR-4 ovarian): 6.43 µg/mL (≈ 15.1 µM)
GI50 (T-47D breast): 2.68 µg/mL (≈ 6.31 µM)
TGI (T-47D breast): 7.65 µg/mL (≈ 18 µM)
GI50 (SK-OV-3 ovarian): 10.2 µg/mL (≈ 23.9 µM)
TGI (SK-OV-3 ovarian): 21.8 µg/mL (≈ 51.5 µM)
GI50 (CAKI-1 renal): 4.22 µg/mL (≈ 9.94 µM)
TGI (CAKI-1 renal): 13.6 µg/mL (≈ 32.1 µM)
GI50 (MALME-3M melanoma): 3.05 µg/mL (≈ 7.17 µM)
TGI (MALME-3M melanoma): 7.45 µg/mL (≈ 17.5 µM)
GI50 (BT-549 breast): 4.39 µg/mL (≈ 10.3 µM)
TGI (BT-549 breast): 15.9 µg/mL (≈ 37.4 µM)
GI50 (CCRF-CEM leukemia): 1.86 µg/mL (≈ 4.38 µM)
TGI (CCRF-CEM leukemia): 5.07 µg/mL (≈ 11.9 µM)
GI50 (LOX IMVI melanoma): 1.85 µg/mL (≈ 4.37 µM)
TGI (LOX IMVI melanoma): 4.31 µg/mL (≈ 10.2 µM)
